# Source: US20130039998A1, “COMPOSITIONS OF MODULATORS OF THE WNT/BETA-CATENIN PATHWAY AND BENZAMIDE AND/OR HYDROXAMIC ACID DERIVATIVES TO TREAT BIPOLAR DISORDER” (UNIVERSITY OF WASHINGTON, priority 2008, published 2013)
# “Also recorded” adds a separate entry of the source.
# Assays:
# GSK-3 = conditions: from Ring et al. 2003 / Cline et al. 2002, cited from earlier work; for EC50: read-out: half-maximal effective concentration [EC50]
# [1] = tested on: T1, class I and class II HDACs; assay: In vitro class I and class II HDAC inhibition; format: biochemical, human; conditions: compared with valproate
# T1 construct: other: HDAC1/2/3 together; other: compared with valproate
# Source text: (§1) To measure the effects of compounds on HDAC activity, a homogenous, fluorimetric deacetylase assay miniaturized to 384-well plate format was used. To perform this assay, a buffered solution containing a recombinant human deacetylase was transferred to a microtiter plate using a robotic plate-filler.
# (§2) Following compound transfer, a second buffered solution was transferred containing trypsin and a class-specific, tripeptide substrate (AcK-AMC) terminating in an acetyl-lysine, which is amide-coupled to 7-amino-4-methylcoumarin (AMC). Following substrate hydrolysis by the deacetylase, trypsin cleaves the terminal amide bond releasing AMC. With an excitation/emission maximum of 350-380/440-460 nm, AMC fluorescence is captured by a multilabel plate reader. For a kinetic version of the assay, fluorescence measurements was recorded every 0.5-5 minutes over 60 minutes. Data were plotted on a well-by-well basis to measure the slope of increasing fluorescence over time, corresponding to enzymatic activity. HDAC enzymes used were commercially-available (BPS Biosciences San Diego, Calif.).
# [2] = tested on: pfuBARS control reporter (non-functional TCF elements), HEK-293T cells
# Source text: (§3) To monitor Wnt/β-catenin signalling the beta-catenin activated reporter (BAR) system developed at the laboratory of Randall Moon, University of Washington, Seattle, Wash., was used. The BAR system contains a concatemer of twelve TCF (T-cell factor) response elements separated by unique five nucleotide linkers specifically designed to minimize recombination that can lead to loss of TCF binding sites. This series of TCF response elements is inserted upstream of Promega's minP minimal promoter completing a functional promoter that drives the transcription of firefly luciferase (pBARLS) along with a PGK promoter driving a puromycin selectable maker. These reporters were inserted between the LTRs (long terminal repeats) of a lentiviral transducing plasmid. […] The pfuBARS reporter is identical to their respective parent reporter with the exception that each TCF DNA binding element contains a two-base substitution conferring a non-functional element. The essentially identical nature of the control reporters provides the most optimal experimental control, as well as allowing for identical lentiviral titer production when generated side by side with the responsive reporter.
# (§4) Cells were plated, treated, and the luciferase activity measured in a 384-well plate. The volume of culture media in each well prior to measuring luciferase activity was 40 μL. After incubation with compounds, 10 μL of Promega Firefly luciferase reagent was added using a liquid dispenser and incubated for 10 minutes at room temperature. Total luminescence was read on an Envision (Perkin Elmer) plate reader. Data was expressed relative to baseline of adding DMSO alone.
# [3] = tested on: Wnt/β-catenin signalling (TCF/LEF transcription), HEK-293T cells; assay: pBARLS beta-catenin activated reporter (TCF/LEF transcription) in HEK-293T cells; format: cell-based, human; conditions: for activation of pBARLS reporter, compound alone (FIG. 3B) / activation of pBARLS reporter in the presence of lithium (FIG. 3B): HEK293T, dose response; for activation of pBARLS reporter in the presence of lithium: 25 μM compound plus lithium 10 mM; for activation of pBAR reporter (FIG. 1B): HEK-293T cells (human)
# Source text: as §3, §4
# [4] = tested on: Wnt/β-catenin signalling (TCF/LEF transcription), HT22 cells; assay: pBARLS beta-catenin activated reporter (TCF/LEF transcription) in HT22 cells; format: cell-based, mouse; conditions: for activation of pBARLS reporter in the presence of lithium / activation of transcription of pBARLS reporter, compound alone: HT22, 24 hr; for activation of pBARLS reporter in the presence of lithium: 25 μM compound plus lithium 10 mM; for activation of transcription of pBARLS reporter, compound alone: lithium 10 mM, MS-275, CI-994, SAHA 25 μM; for activation of pBAR reporter (FIG. 1B): HT22 cells (mouse)
# Source text: as §3, §4
# HDAC6 = HDAC6 (Homo sapiens, UniProt Q9UBN7); assay: Fluorimetric deacetylase assay, HDAC6; format: biochemical
# Chain of HDAC6 (Q9UBN7 whole entry): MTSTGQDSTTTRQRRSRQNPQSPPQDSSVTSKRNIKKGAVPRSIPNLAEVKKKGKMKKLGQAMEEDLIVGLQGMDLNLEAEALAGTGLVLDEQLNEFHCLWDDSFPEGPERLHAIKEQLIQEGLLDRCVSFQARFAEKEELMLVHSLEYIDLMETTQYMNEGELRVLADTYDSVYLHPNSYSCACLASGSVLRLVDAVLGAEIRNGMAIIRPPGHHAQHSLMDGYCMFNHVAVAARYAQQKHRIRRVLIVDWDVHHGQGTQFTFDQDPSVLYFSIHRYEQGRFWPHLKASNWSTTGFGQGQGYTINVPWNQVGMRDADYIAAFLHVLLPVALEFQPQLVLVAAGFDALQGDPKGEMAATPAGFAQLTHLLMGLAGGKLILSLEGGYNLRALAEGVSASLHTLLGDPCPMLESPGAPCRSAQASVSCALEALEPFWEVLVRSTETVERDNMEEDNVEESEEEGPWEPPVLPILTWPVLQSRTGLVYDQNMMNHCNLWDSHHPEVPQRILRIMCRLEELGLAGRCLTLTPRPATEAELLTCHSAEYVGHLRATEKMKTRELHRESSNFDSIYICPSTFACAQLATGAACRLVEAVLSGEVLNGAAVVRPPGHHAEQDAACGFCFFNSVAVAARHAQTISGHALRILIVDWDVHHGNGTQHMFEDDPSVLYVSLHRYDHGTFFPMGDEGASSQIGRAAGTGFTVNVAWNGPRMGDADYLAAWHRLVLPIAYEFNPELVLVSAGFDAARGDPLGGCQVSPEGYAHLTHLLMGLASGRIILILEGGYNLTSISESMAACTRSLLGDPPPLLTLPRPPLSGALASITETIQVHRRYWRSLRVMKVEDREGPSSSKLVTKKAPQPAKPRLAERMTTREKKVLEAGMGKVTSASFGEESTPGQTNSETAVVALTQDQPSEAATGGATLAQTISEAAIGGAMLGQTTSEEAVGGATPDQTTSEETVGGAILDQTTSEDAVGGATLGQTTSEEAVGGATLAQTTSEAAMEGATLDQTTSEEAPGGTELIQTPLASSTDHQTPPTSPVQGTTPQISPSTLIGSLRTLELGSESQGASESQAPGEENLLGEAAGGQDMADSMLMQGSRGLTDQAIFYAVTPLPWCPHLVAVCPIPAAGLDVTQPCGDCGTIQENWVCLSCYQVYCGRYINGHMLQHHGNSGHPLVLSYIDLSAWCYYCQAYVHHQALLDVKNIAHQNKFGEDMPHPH
# Source text: as §1, §2
# HDAC5 = target: T2, HDAC5 (Homo sapiens, UniProt Q9UQL6); assay: Fluorimetric deacetylase assay, HDAC5; format: biochemical; conditions: Class IIa
# T2 construct: purchased BPS Biosciences
# T2 sequence (Q9UQL6 whole entry): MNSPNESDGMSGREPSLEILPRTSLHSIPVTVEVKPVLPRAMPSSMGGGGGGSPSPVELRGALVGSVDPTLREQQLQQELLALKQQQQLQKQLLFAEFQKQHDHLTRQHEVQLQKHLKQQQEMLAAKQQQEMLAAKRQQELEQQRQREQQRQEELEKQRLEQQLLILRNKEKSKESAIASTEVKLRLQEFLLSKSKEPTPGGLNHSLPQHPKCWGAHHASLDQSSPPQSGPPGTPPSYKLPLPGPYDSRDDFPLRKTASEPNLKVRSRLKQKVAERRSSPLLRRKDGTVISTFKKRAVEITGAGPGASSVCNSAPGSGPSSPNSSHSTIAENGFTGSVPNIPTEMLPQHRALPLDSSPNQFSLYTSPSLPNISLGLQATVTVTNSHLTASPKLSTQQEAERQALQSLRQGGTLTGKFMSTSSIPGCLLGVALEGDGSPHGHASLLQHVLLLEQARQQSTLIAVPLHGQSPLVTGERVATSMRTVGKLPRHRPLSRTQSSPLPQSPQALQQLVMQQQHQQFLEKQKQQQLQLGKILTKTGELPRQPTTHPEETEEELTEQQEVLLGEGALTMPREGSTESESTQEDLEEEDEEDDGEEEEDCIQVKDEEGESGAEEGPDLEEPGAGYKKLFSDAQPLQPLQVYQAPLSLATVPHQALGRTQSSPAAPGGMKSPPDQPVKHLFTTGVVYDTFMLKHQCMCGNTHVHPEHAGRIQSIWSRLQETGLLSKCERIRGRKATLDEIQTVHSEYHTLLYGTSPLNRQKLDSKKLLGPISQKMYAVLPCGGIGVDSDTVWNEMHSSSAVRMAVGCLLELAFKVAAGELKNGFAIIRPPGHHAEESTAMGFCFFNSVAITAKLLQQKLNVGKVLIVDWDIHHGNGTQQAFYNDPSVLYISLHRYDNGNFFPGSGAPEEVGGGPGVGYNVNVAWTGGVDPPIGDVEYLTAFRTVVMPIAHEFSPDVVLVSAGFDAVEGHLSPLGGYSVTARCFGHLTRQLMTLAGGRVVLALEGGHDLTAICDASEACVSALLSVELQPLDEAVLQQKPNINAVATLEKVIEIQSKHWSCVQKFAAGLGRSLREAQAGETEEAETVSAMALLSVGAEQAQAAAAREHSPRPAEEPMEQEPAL
# HDAC1 = target: T3, HDAC1 (Homo sapiens, UniProt Q13547); assay: Fluorimetric deacetylase assay, HDAC1; format: biochemical; conditions: Class I; avg n = 2 with class-specific substrates
# T3 construct: purchased BPS Biosciences
# T3 sequence (Q13547 whole entry): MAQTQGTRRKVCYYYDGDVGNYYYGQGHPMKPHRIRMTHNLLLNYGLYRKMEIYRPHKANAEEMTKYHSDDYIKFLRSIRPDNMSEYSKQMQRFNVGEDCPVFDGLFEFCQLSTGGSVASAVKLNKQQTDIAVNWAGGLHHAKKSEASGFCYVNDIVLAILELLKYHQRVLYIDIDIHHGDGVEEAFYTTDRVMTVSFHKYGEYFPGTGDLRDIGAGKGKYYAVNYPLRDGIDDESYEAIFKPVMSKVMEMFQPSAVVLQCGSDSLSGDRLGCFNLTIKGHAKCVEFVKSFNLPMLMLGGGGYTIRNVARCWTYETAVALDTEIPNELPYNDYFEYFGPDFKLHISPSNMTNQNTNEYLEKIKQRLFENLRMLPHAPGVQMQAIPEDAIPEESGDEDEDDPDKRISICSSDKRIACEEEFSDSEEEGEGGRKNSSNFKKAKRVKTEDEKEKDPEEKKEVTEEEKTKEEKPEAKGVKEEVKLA
# [5] = listed as Wnt3a conditioned media
molecule,measurement,setting,value
O=[N+]([O-])c1ccc(NCCNc2ncc(-c3ncc[nH]3)c(-c3ccc(Cl)cc3Cl)n2)nc1 [CHIR-837],selectivity for GSK-3,GSK-3,"> 5,000 fold"
same,EC50,GSK-3,375 nM
CC(=O)Nc1ccc(C(=O)Nc2ccccc2N)cc1 [CI-994],potency on class I HDACs in comparison to valproate,[1],much more potent
same,"activity in pfuBARS control reporter, compound alone",[2],no activity
same,activity in pfuBARS control reporter in the presence of lithium,[2],no activity
Nc1ccccc1NC(=O)c1ccc(CNC(=O)OCc2cccnc2)cc1 [MS-275],"activation of pBARLS reporter, compound alone (FIG. 3B)","[3]; 24 hr, alone",activation on their own
same,activation of pBARLS reporter in the presence of lithium (FIG. 3B),"[3]; 24 hr, lithium 10 mM",synergistic activation
same,activation of pBARLS reporter in the presence of lithium,"[3]; HEK-293T, 24 hr",strong synergistic activation of transcription; also recorded: strong synergy
same,"activation of transcription of pBARLS reporter, compound alone","[3]; HEK-293T, 24 hr, lithium 10 mM, MS-275, CI-994, SAHA 25 μM, alone",activated transcription of the reporter; also recorded: activate transcription on their own
same,"activity in pfuBARS control reporter, compound alone",[2],no activity
same,activity in pfuBARS control reporter in the presence of lithium,[2],no activity
same,activation of pBARLS reporter in the presence of lithium,[4],strong synergistic activation of transcription
same,"activation of transcription of pBARLS reporter, compound alone",[4],partially capable of activating transcription; also recorded: capable of activating transcription on its own
O=C(CCCCCCC(=O)Nc1ccccc1)NO [SAHA],activation of pBARLS reporter in the presence of lithium,"[3]; HEK-293T, 24 hr",strong synergistic activation of transcription; also recorded: strong synergy
same,activation of pBARLS reporter in the presence of lithium,[4],strong synergistic activation of transcription
same,"activation of transcription of pBARLS reporter, compound alone",[4],unable to activate transcription
Cc1[nH]c2ccccc2c1CCNCc1ccc(/C=C/C(=O)NO)cc1 [panobinostat],"activation of pBARLS reporter, compound alone (FIG. 3B)","[3]; 24 hr, alone",activation on their own
same,activation of pBARLS reporter in the presence of lithium (FIG. 3B),"[3]; 24 hr, lithium 10 mM",synergistic activation
same,"potency relative to SAHA (dose responses, FIG. 3)",[3]; pBARLS reporter dose response,more potent than SAHA
CCCC(CCC)C(=O)O [valproate],IC50,HDAC6,> 10 mM
same,IC50,HDAC5,> 10 mM
same,IC50,HDAC1,27 µM
Wnt3a,activation of pBAR reporter (FIG. 1B),[3],activation
same,activation of pBAR reporter (FIG. 1B),[3]; [5],capable of responding
same,activation of pBAR reporter (FIG. 1B),[4],activation
same,activation of pBAR reporter (FIG. 1B),[4]; [5],capable of responding
